{"source": "patent US20250176599A1", "about": "“FLAVOR COMPOSITION AND FOOD AND BEVERAGE” (TAKASAGO INTERNATIONAL CORPORATION, priority 2021, published 2025)", "key": {"[1]": {"assay": "Sensory evaluation of aqueous solution V containing 1-octen-3-ol 10 ppb: off-flavor intensity and masking component intensity", "conditions": "1-octen-3-ol 10 ppb, average score 0-4", "in_short": "(§1)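 Relative off-flavor ratings (0–4) used the unmasked degradant solution as 4 and pure ion-exchanged water as 0. Intensity of the added nootkatone was scored absolutely, 0–4, by eight experienced panelists.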"}, "[2]": {"assay": "Sensory evaluation of aqueous solution II containing (E)-2-octenal 10 ppb: off-flavor intensity and masking component intensity", "conditions": "(E)-2-octenal 10 ppb, average score 0-4", "in_short": "as §1"}, "[3]": {"assay": "Sensory evaluation of aqueous solution VI containing 1,5-octadien-3-ol 10 ppb: off-flavor intensity and masking component intensity", "conditions": "aqueous solution VI, 1,5-octadien-3-ol 10 ppb, average score 0-4", "in_short": "as §1"}, "[4]": {"assay": "Sensory evaluation of aqueous solution III containing 1-octen-3-one 1 ppb: off-flavor intensity and masking component intensity", "conditions": "1-octen-3-one 1 ppb, average score 0-4", "in_short": "as §1"}, "[5]": {"assay": "Sensory evaluation of aqueous solution IV containing 1,5-octadien-3-one 100 ppt: off-flavor intensity and masking component intensity", "conditions": "aqueous solution IV, 1,5-octadien-3-one 100 ppt, average score 0-4", "in_short": "as §1"}, "[6]": {"assay": "Overall conclusion of the sensory evaluation across aqueous solutions I to VI", "in_short": "as §1"}, "[7]": {"assay": "Sensory evaluation of aqueous solution I containing (E)-2-nonenal 1 ppb: off-flavor intensity and masking component intensity", "conditions": "(E)-2-nonenal 1 ppb, average score 0-4", "in_short": "as §1"}}}
{"smiles": "C/C=C/C(=O)C1=C(C)C=CCC1(C)C", "note": "[β-Damascenone, β-damascenone]", "values": [{"measurement": "Off-Flavor Intensity", "setting": "[1]; 0.001 ppt added", "value": 3.4, "unit": "points"}, {"measurement": "Off-Flavor Intensity", "setting": "[1]; 0.01 ppt added", "value": 3.1, "unit": "points"}, {"measurement": "Off-Flavor Intensity", "setting": "[1]; 0.1 ppt added", "value": 2.6, "unit": "points"}, {"measurement": "Off-Flavor Intensity", "setting": "[1]; 1 ppb added", "value": 1.5, "unit": "points"}, {"measurement": "Off-Flavor Intensity", "setting": "[1]; 1 ppt added", "value": 2.4, "unit": "points"}, {"measurement": "Off-Flavor Intensity", "setting": "[1]; 10 ppb added", "value": 1.1, "unit": "points"}, {"measurement": "Off-Flavor Intensity", "setting": "[1]; 10 ppt added", "value": 2.4, "unit": "points"}, {"measurement": "Off-Flavor Intensity", "setting": "[1]; 100 ppb added", "value": 0.8, "unit": "points"}, {"measurement": "Off-Flavor Intensity", "setting": "[1]; 100 ppt added", "value": 2.0, "unit": "points"}, {"measurement": "Off-Flavor Intensity", "setting": "[2]; 0.001 ppt added", "value": 2.9, "unit": "points"}, {"measurement": "Off-Flavor Intensity", "setting": "[2]; 0.01 ppt added", "value": 2.8, "unit": "points"}, {"measurement": "Off-Flavor Intensity", "setting": "[2]; 0.1 ppt added", "value": 2.4, "unit": "points"}, {"measurement": "Off-Flavor Intensity", "setting": "[2]; 1 ppb added", "value": 1.1, "unit": "points"}, {"measurement": "Off-Flavor Intensity", "setting": "[2]; 1 ppt added", "value": 2.1, "unit": "points"}, {"measurement": "Off-Flavor Intensity", "setting": "[2]; 10 ppb added", "value": 0.9, "unit": "points"}, {"measurement": "Off-Flavor Intensity", "setting": "[2]; 10 ppt added", "value": 1.9, "unit": "points"}, {"measurement": "Off-Flavor Intensity", "setting": "[2]; 100 ppb added", "value": 0.8, "unit": "points"}, {"measurement": "Off-Flavor Intensity", "setting": "[2]; 100 ppt added", "value": 1.4, "unit": "points"}, {"measurement": "Off-Flavor Intensity", "setting": "[3]; 0.001 ppt added", "value": 2.6, "unit": "points"}, {"measurement": "Off-Flavor Intensity", "setting": "[3]; 0.01 ppt added", "value": 2.1, "unit": "points"}, {"measurement": "Off-Flavor Intensity", "setting": "[3]; 0.1 ppt added", "value": 1.9, "unit": "points"}, {"measurement": "Off-Flavor Intensity", "setting": "[3]; 1 ppb added", "value": 0.6, "unit": "points"}, {"measurement": "Off-Flavor Intensity", "setting": "[3]; 1 ppt added", "value": 1.7, "unit": "points"}, {"measurement": "Off-Flavor Intensity", "setting": "[3]; 10 ppb added", "value": 0.2, "unit": "points"}, {"measurement": "Off-Flavor Intensity", "setting": "[3]; 10 ppt added", "value": 1.3, "unit": "points"}, {"measurement": "Off-Flavor Intensity", "setting": "[3]; 100 ppb added", "value": 0.0, "unit": "points"}, {"measurement": "Off-Flavor Intensity", "setting": "[3]; 100 ppt added", "value": 0.9, "unit": "points"}, {"measurement": "Off-Flavor Intensity", "setting": "[4]; 0.001 ppt added", "value": 3.6, "unit": "points"}, {"measurement": "Off-Flavor Intensity", "setting": "[4]; 0.01 ppt added", "value": 3.6, "unit": "points"}, {"measurement": "Off-Flavor Intensity", "setting": "[4]; 0.1 ppt added", "value": 3.3, "unit": "points"}, {"measurement": "Off-Flavor Intensity", "setting": "[4]; 1 ppb added", "value": 1.9, "unit": "points"}, {"measurement": "Off-Flavor Intensity", "setting": "[4]; 1 ppt added", "value": 2.9, "unit": "points"}, {"measurement": "Off-Flavor Intensity", "setting": "[4]; 10 ppb added", "value": 1.4, "unit": "points"}, {"measurement": "Off-Flavor Intensity", "setting": "[4]; 10 ppt added", "value": 2.5, "unit": "points"}, {"measurement": "Off-Flavor Intensity", "setting": "[4]; 100 ppb added", "value": 1.3, "unit": "points"}, {"measurement": "Off-Flavor Intensity", "setting": "[4]; 100 ppt added", "value": 2.3, "unit": "points"}, {"measurement": "Off-Flavor Intensity", "setting": "[5]; 0.001 ppt added", "value": 3.5, "unit": "points"}, {"measurement": "Off-Flavor Intensity", "setting": "[5]; 0.01 ppt added", "value": 3.4, "unit": "points"}, {"measurement": "Off-Flavor Intensity", "setting": "[5]; 0.1 ppt added", "value": 3.3, "unit": "points"}, {"measurement": "Off-Flavor Intensity", "setting": "[5]; 1 ppb added", "value": 2.3, "unit": "points"}, {"measurement": "Off-Flavor Intensity", "setting": "[5]; 1 ppt added", "value": 3.1, "unit": "points"}, {"measurement": "Off-Flavor Intensity", "setting": "[5]; 10 ppb added", "value": 1.6, "unit": "points"}, {"measurement": "Off-Flavor Intensity", "setting": "[5]; 10 ppt added", "value": 2.8, "unit": "points"}, {"measurement": "Off-Flavor Intensity", "setting": "[5]; 100 ppb added", "value": 1.6, "unit": "points"}, {"measurement": "Off-Flavor Intensity", "setting": "[5]; 100 ppt added", "value": 2.5, "unit": "points"}, {"measurement": "concentration that masks the off-flavor and does not affect the flavor of the food and/or beverage itself, lower limit", "setting": "[6]", "value": "≥ 0.001", "unit": "ppt"}, {"measurement": "concentration that masks the off-flavor and does not affect the flavor of the food and/or beverage itself, upper limit", "setting": "[6]", "value": "≤ 10", "unit": "ppb"}, {"measurement": "Off-Flavor Intensity", "setting": "[7]; 0.001 ppt added", "value": 3.5, "unit": "points"}, {"measurement": "Off-Flavor Intensity", "setting": "[7]; 0.01 ppt added", "value": 3.5, "unit": "points"}, {"measurement": "Off-Flavor Intensity", "setting": "[7]; 0.1 ppt added", "value": 2.9, "unit": "points"}, {"measurement": "Off-Flavor Intensity", "setting": "[7]; 1 ppb added", "value": 1.8, "unit": "points"}, {"measurement": "Off-Flavor Intensity", "setting": "[7]; 1 ppt added", "value": 2.5, "unit": "points"}, {"measurement": "Off-Flavor Intensity", "setting": "[7]; 10 ppb added", "value": 1.4, "unit": "points"}, {"measurement": "Off-Flavor Intensity", "setting": "[7]; 10 ppt added", "value": 2.4, "unit": "points"}, {"measurement": "Off-Flavor Intensity", "setting": "[7]; 100 ppb added", "value": 1.0, "unit": "points"}, {"measurement": "Off-Flavor Intensity", "setting": "[7]; 100 ppt added", "value": 2.3, "unit": "points"}]}
